These results are taken from ChEMBL document CHEMBL1153761, “Bisnicalaterine A, a vobasine-vobasine bisindole alkaloid from Hunteria zeylanica” (J Nat Prod, 2009).

Converted amounts (≈) assume the structure as drawn.

Assay type in all cases: functional, cell-based
One experiment concerns HL-60. The experiment in a line: Cytotoxicity against human HL60 cells after 48 hrs by MTT assay. The conditions noted are these: HL-60, 48 h. On the technique in general: Tetrazolium dyes change colour on reduction, which living cells bring about.
The next experiment concerns HCT-116. The experiment in a line: Cytotoxicity against human HCT116 cells after 48 hrs by MTT assay. As to conditions: HCT-116, 48 h.
The next experiment has as its system RPMI-8226. Kind of experiment: Cytotoxicity against human RPMI8226 cells after 48 hrs by MTT assay. As to conditions: RPMI-8226, 48 h.
Another experiment deals with NCI-H226. Kind of experiment: Cytotoxicity against human NCI-H226 cells after 48 hrs by MTT assay. The conditions noted are these: NCI-H226, 48 h.
Another experiment deals with MCF7. Kind of experiment: Cytotoxicity against human MCF7 cells after 48 hrs by MTT assay. As to conditions: MCF7, 48 h.

Usually IC50 stands for the concentration that inhibits the measured activity by half. A lower IC50 goes with higher potency. `C/C=C1/CN(C)[C@H]2Cc3c([nH]c4ccccc34)[C@H](n3c4c(c5ccccc53)C[C@H]3[C@@H](C(=O)OC)[C@H](C[C@H]4O)/C(=C\C)CN3C)C[C@H]1[C@@H]2C(=O)OC` [BISNICALATERINE A]: the concentration for half-maximal inhibition (IC50) came to 16.2 µg/mL (≈ 23.4 µM) with HL-60; 21.9 µg/mL (≈ 31.7 µM) in the experiment on HCT-116; 31.3 µg/mL (≈ 45.3 µM) with RPMI-8226; 28.1 µg/mL (≈ 40.7 µM) in the experiment with NCI-H226; 38 µg/mL (≈ 55 µM) in the experiment with MCF7.
